PMC6085350, “Small molecule inhibitors of RAS-effector protein interactions derived using an intracellular antibody fragment” (Nature Communications, 2018)

Biological target: T1, KRAS^G12V-GppNHp (Homo sapiens, UniProt P01116, G12V)
T1 construct: made in house; host or cells: E. coli (pGEX-2T; strain named only for the HRAS plasmids)
Test: waterLOGSY NMR binding
Procedure: The waterLOGSY NMR method[35] was used to measure RAS ligand interaction. WaterLOGSY experiments were conducted at a ^1H frequency of 600 MHz using a Bruker Avance spectrometer equipped with a BBI probe. All experiments were conducted at 298 K, 3 mm diameter NMR tubes with a sample final volume of 200 µl was used in all experiments. Solutions were buffered using an H2O 10 mM PBS, 5 mM MgCl2 buffer corrected to pH 7.4. The sample preparation is exemplified as follows, the compound (10 µl of a […] solution in DMSO-d6) was added to an eppendorf before sequential addition of the H2O PBS buffer (163.6 µl), D2O (20 µl), and protein (6.4 µl, 311.8 µM). The resulting solution was spun to ensure full mixing and transferred to a 3 mm NMR tube before running the experiment. For a competition experiment using Y6-scFv or VH, the preparation was carried out in a similar manner; the compound (10 µl of a 10 mM solution in DMSO-d6) was added to an eppendorf before sequential addition of the H2O PBS buffer (146.4 µl), D2O (20 µl), protein (6.4 µl, 311.8 µM) and Y6-ScFv (17.2 µl, 116.6 µM) with a ratio of 5.5:1:1. The resulting solution was spun and transferred to a 3 mm NMR tube before the run. Negative controls (compound alone, without the protein) were prepared in a similar manner, in order to obtain an end volume of 200 μl.
Supplementary Figure 3: Abd-2 WaterLOGSY NMR with and without anti RAS-scFV Abd-2 was analyzed by waterLOGSY. […]
binding of Abd-2 to KRAS -GppNHp (upper trace, in green) but poor binding to KRAS-GDP (middle trace, in red). The proton NMR spectrum of Abd-2 in the absence of protein is […]
shown in the lower trace. Panel b, WaterLOGSY of Abd-2 with KRAS -GppNHp in the presence or absence of scFv competitor respectively top (no binding of Abd-2 to the […]
KRAS -GppNHp + scFv complex) and middle spectra (binding to KRAS -GppNHp without scFv) in purple and red respectively. The lower spectra is the proton NMR of Abd -2 in the absence of protein. Results from panel b confirm the interference of binding by the […]
(1 picture or pasted object on this page, not shown here)
Supplementary Figure 6: Abd-7 Binding in WaterLOGSy and Kd calculations in CPMG WaterLOGSY and CPMG NMR orthogonal analysis of Abd-5 (panel a, b), Abd-6 (c, d), and Abd-7 (e, f) with GST-KRASG12V-GppNHp. For each waterLOGSY profile, the proton NMR spectrum of the compound is shown together the spectra of the compound after incubation with the KRAS (the NOE transfers occurs when the compounds displace those waters upon binding to the protein). The Kd of interaction of the compounds come from fitting a binding curve (right of panels b, d, f) of a CPMG titration (shown on the left of panels b, d, f). The calculated Kd is shown for each compound.
(MW), Kd, Solubility and ligand efficiency (LE). […]

T1 sequence (P01116 1-188 isoform P01116-2 G12V): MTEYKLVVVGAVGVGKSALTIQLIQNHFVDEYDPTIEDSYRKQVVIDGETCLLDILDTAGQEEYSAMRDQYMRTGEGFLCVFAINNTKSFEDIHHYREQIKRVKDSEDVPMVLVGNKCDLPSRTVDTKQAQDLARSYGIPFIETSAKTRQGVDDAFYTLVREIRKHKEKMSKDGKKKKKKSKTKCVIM

Which “binding to KRAS^G12V-GppNHp (waterLOGSY)” value does the source give for `COc1nc(-c2cccc3c2O[C@H](CNC(=O)C2CCOCC2)CO3)ccc1Nc1cccc(CN(C)C)c1` [Abd-6] here?
The value was “confirmed”.

For `O=C(NCC1COc2ccccc2O1)c1ccco1` (stereo not shown) [Abd-2], which “binding to KRAS^G12V-GppNHp (waterLOGSY)” value is on record?
The value was “preferential binding”.

Which “binding to KRAS^G12V-GppNHp (waterLOGSY)” value does the source give for `COc1nc(-c2cccc3c2OCCO3)ccc1Nc1ccc(CN(C)C)cc1` [Abd-7] here?
Its value is “confirmed”.

How did the “binding to KRAS^G12V-GppNHp (waterLOGSY)” value turn out when `COc1cccc(-c2cccc3c2OC(CNC(=O)c2ccc(OCCN(C)C)cc2)CO3)n1` (stereo not shown) [Abd-5] was run?
Its value is “confirmed”.
